Tested on: SSTR2
Assay: SSTR2 internalization by ELISA, HEK293, 30 min 37 °C (wild-type)
Assay type: cell-based, human
Settings: for Internalization of wild-type SSTR2: same concentration for both drugs, also confocal and Bystander BRET
Description: HEK293 cells were seeded into 96-well microplates at a density of 4 × 10^4 cells/well and cultured for 24 h at 37 °C with 5% CO2 and were transfected using the same procedure as the cAMP accumulation assay. The plates were washed with washing buffer (PBS) the day after transfection, and were fixed with 4% formalin at room temperature for 30 min. Cells were washed with washing buffer and blocked with PBS supplemented with 5% BSA for 1 h at room temperature. After that, cells were incubated with anti-Flag antibody (1:1000 diluted with PBS containing 5% BSA, Proteintech: 66008-4-Ig) for 1 h at room temperature. After 1 h incubation, cells were washed with washing buffer and incubating with HRP-conjugated secondary antibody for 2 h at room temperature. After incubating and washing, 50 μl of chromogenic solution was added to each well, and reacted at room temperature for 10 min, and then 0.5 M HCl were added to stop the reaction.
All data presented are means at least three independent experiments.

| SMILES | Internalization of wild-type SSTR2 | Receptor internalization (SSTR2 WT, compared with octreotide, Fig. 1d–f) |
| --- | --- | --- |
| C[C@@H](O)[C@@H]1NC(=O)[C@H](CCCCN)NC(=O)[C@@H](Cc2c[nH]c3ccccc23)NC(=O)[C@H](Cc2ccccc2)NC(=O)[C@@H](NC(=O)[C@H](N)Cc2ccccc2)CSSC[C@@H](C(=O)N[C@H](CO)[C@@H](C)O)NC1=O [octreotide] | obviously internalized |  |
| N#Cc1cccc(-c2ccc3ncc(-c4cc(F)cc(F)c4)c(N4CCC(N)CC4)c3c2)c1O [paltusotine] | reduced | less receptor internalization |

Reference: PMC9944328 (Nature Communications, 2023)
